According to patent publication US6528618B1, “Anti-inflammatory peptides derived from C-reactive protein” (Yeda Research and Development Co. Ltd., priority 1997, dated 2003):
“Also recorded” adds a separate entry of the source. Where a SMILES comes first, the peptide text is derived from it.

Assays:
[1] = biological target: T1, human leukocyte elastase (hLE) (Homo sapiens, UniProt P08246); test: In vitro inhibition of hLE (cleavage of MeOSuc-AAPV-NA); format: biochemical; settings: for Ki: hLE Ki [μM], substrate MeOSuc-AAPV-NA 200 μM, pH 7.4, 37 C
T1 construct: Neutrophils (1.4 billion) were isolated from whole blood obtained from a single healthy laboratory donor; from tissue; host or cells: neutrophils from whole blood of a single healthy donor
T1 sequence (P08246 30-247 limits assumed): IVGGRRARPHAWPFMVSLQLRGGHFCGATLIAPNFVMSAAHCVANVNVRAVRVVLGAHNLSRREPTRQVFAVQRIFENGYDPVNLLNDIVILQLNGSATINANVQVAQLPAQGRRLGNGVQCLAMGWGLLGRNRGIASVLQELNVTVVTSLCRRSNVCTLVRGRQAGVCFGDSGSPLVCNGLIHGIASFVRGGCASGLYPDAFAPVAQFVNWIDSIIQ
Protocol: (§1) The enzymatic activity was assayed with MeOSuc-AAPV-NA for hLE determination and Suc-AAPF-NA for hCG determination (both in 100 mM Hepes buffer, pH 7.4, containing 0.05% of the […] detergent Brij-35). The activities of the individual enzymatic fractions were 100% free from cross-contamination. […] The fractions containing hLE and hCG were dialyzed each against 0.1% pyridinium acetate, pH 5.3, divided into 20 aliquots, lyophilized, and stored at −20 ° C. until use.
(v) Inhibition experiments with hLE: Peptides were dissolved in 100 mM Hepes buffer pH 7.4 containing 0.1% Brij-35 with 10%. DMSO to yield 300 μM solutions, which were used to make further dilutions with the same buffer, and 80 μL aliquots were added in duplicates to 96-well plates. The substrate, 600 μM MeOSuc-AAPV-NA in the same buffer with 5% DMSO, was added to each well in addition to the blank wells, and the plate was placed in the plate reader equilibrated to 37 C (Dynateck MR-6000). Lyophilized aliquots of hLE were dissolved in 1600 μL of 100 mM Hepes buffer without DMSO, and 80 μL of the enzyme solution was added to the peptides and substrate to initiate the reaction. […] The final volume was 240 μL containing: 5% DMSO, 1-100 μM of peptide, 200 μM substrate, and 0.75 μg (˜25 picomol) enzyme.
(viii) Calculations: For hLE, V is determined by fitting a linear equation to the first 6 time-points (10 min) of the kinetics data using the least squares method. […] Several inhibitor concentration in duplicates and two control wells were used to fit a linear equation to graphs of Vo/Vi−1 vs. [I] for each inhibitor using the least squares method (8 data points for each inhibitor). From calculating the error in the slope of the equation, the relative error for Ki was deduced:
Ki={slope*(1+[S]/Km)}^−1because Ki=[I]*{(1+[S]/Km)*(Vo/Vi−1)}^−1.
The hLE inhibitory capability of CRP-derived peptides was evaluated by inhibiting the enzymatic cleavage of MeOSuc-AAPV-NA as described in Materials and Methods (section v).

[2] = biological target: T2, human leukocyte cathepsin G (hCG) (Homo sapiens, UniProt P08311); test: In vitro inhibition of hCG (cleavage of Suc-AAPF-NA); format: biochemical; settings: for Ki: hCG Ki [μM], substrate Suc-AAPF-NA 600 μM, pH 7.4
T2 construct: Neutrophils (1.4 billion) were isolated from whole blood obtained from a single healthy laboratory donor; from tissue; host or cells: neutrophils from whole blood of a single healthy donor
T2 sequence (P08311 21-243 limits assumed): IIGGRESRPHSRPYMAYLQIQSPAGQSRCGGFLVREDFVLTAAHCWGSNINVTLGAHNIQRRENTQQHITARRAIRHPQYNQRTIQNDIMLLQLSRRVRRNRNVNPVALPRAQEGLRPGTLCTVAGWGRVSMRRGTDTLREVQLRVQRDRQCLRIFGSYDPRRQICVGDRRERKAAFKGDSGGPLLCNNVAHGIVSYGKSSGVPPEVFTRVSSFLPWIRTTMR
Protocol: as §1
vi) Inhibition experiments with hCG: Similar conditions to hLE inhibition experiments were used except the substrate: 80 μL of 1.80 mM Suc-AAPF-NA. The enzyme was dissolved in 800 μL buffer, and the reaction was monitored every 6 min for 1 hour. The final volume was 240 μL containing: 5% DMSO, 1-100 μM peptide, 600 μM substrate, and 1.2 μg enzyme (about 40 picomol).
For hCG, V is determined by fitting a quadratic equation to the total kinetic data (60 min), using the least squares method and calculating V at t=0.
The hCG inhibitory capability of CRP-derived peptides was evaluated by inhibiting the enzymatic cleavage of Suc-AAPF-NA as described in Materials and Methods (section vi).

Row | hCG inhibitory activity (in words) [2] | fold decrease in hLE inhibitory activity compared to peptide 6 ([1]; relative to peptide 6) | Compound | hLE inhibitory activity (in words) [1] | Ki ([1]; Table 2) [µM] | Ki ([2]; Table 2) [µM] | Ki ([1]; Table 1) [µM] | Ki ([2]; Table 1) [µM]
1 |  |  | CC[C@H](C)[C@H](NC(=O)[C@H](CC(=O)O)NC(=O)[C@H](CCN)NC(=O)[C@H](CO)NC(=O)[C@H](Cc1c[nH]c2ccccc12)NC(=O)[C@H](Cc1ccccc1)NC(=O)[C@@H](NC(=O)[C@H](CC(C)C)NC(=O)[C@@H](NC(=O)[C@@H](N)CCC(=O)O)[C@@H](C)CC)[C@@H](C)CC)C(=O)NCC(=O)N[C@@H](Cc1ccc(O)cc1)C(=O)N[C@@H](CO)C(=O)N[C@@H](Cc1ccccc1)C(=O)N[C@H](C(=O)O)[C@@H](C)O [Peptide 21, Glu-Ile-Leu-Ile-Phe-Trp-Ser-DAB-Asp-Ile-Gly-Tyr-Ser-Phe-Thr] (HELM PEPTIDE1{E.I.L.I.F.W.S.[Dab].D.I.G.Y.S.F.T}$$$$V2.0; N-terminus and C-terminus assumed) | retained the same level of inhibitory activity as peptide 6 | 0.2 ± 0.05 | 0.85 ± 0.35 |  | 
2 |  |  | CC[C@H](C)[C@H](NC(=O)[C@H](CC(C)C)NC(=O)[C@@H](NC(=O)[C@@H](N)CCC(=O)O)[C@@H](C)CC)C(=O)N[C@@H](Cc1ccccc1)C(=O)N[C@@H](Cc1c[nH]c2ccccc12)C(=O)N[C@@H](CO)C(=O)N[C@@H](CCCCN)C(=O)O [Peptide 15, Glu-Ile-Leu-Ile-Phe-Trp-Ser-Lys] (H-EILIFWSK-OH) | total loss of inhibitory activity | > 200 | > 200 |  | 
3 | retain significant inhibitory activity |  | CC[C@H](C)[C@H](NC(=O)[C@H](CC(=O)O)NC(=O)[C@H](CCCCN)NC(=O)[C@H](CO)NC(=O)[C@H](Cc1c[nH]c2ccccc12)NC(=O)[C@H](Cc1ccccc1)NC(=O)[C@@H](NC(=O)[C@H](CC(C)C)NC(=O)[C@@H](NC(=O)[C@@H](N)CCC(=O)O)[C@@H](C)CC)[C@@H](C)CC)C(=O)O [Peptide 14, Glu-Ile-Leu-Ile-Phe-Trp-Ser-Lys-Asp-Ile] (H-EILIFWSKDI-OH; N-terminus and C-terminus assumed) | still retains significant inhibitory activity; also recorded: retain significant inhibitory activity |  |  |  | 
4 |  |  | CC[C@H](C)[C@H](NC(=O)[C@H](CCC(=O)O)NC(=O)[C@H](CO)NC(=O)CNC(=O)CNC(=O)[C@@H](N)C(C)C)C(=O)N[C@@H](CC(C)C)C(=O)N[C@@H](Cc1ccccc1)C(=O)N[C@@H](CCC(=O)O)C(=O)N[C@H](C(=O)N1CCC[C@H]1C(=O)N[C@@H](CCC(=O)O)C(=O)N[C@H](C(=O)N[C@H](C(=O)N[C@H](C(=O)O)C(C)C)[C@@H](C)O)C(C)C)C(C)C [Peptide 9, Val-Gly-Gly-Ser-Glu-Ile-Leu-Phe-Glu-Val-Pro-Glu-Val-Thr-Val] (H-VGGSEILFEVPEVTV-OH) |  |  |  | > 200 | > 200
5 | dramatic loss | around 20 fold | CC[C@H](C)[C@H](N)C(=O)N[C@@H](CC(C)C)C(=O)N[C@H](C(=O)N[C@@H](Cc1ccccc1)C(=O)N[C@@H](Cc1c[nH]c2ccccc12)C(=O)N[C@@H](CO)C(=O)N[C@@H](CCCCN)C(=O)N[C@@H](CC(=O)O)C(=O)N[C@H](C(=O)NCC(=O)N[C@@H](Cc1ccc(O)cc1)C(=O)N[C@@H](CO)C(=O)N[C@@H](Cc1ccccc1)C(=O)N[C@H](C(=O)O)[C@@H](C)O)[C@@H](C)CC)[C@@H](C)CC [Peptide 11, Ile-Leu-Ile-Phe-Trp-Ser-Lys-Asp-Ile-Gly-Tyr-Ser-Phe-Thr] (H-ILIFWSKDIGYSFT-OH; N-terminus and C-terminus assumed) | dramatic loss |  |  |  | 
6 |  |  | CC[C@H](C)[C@H](NC(=O)[C@H](CO)NC(=O)[C@H](Cc1ccc(O)cc1)NC(=O)CNC(=O)[C@H](CCCNC(=N)N)NC(=O)[C@@H](NC(=O)[C@H](CO)NC(=O)[C@H](CO)NC(=O)[C@H](CC(C)C)NC(=O)[C@H](CCC(=O)O)NC(=O)[C@@H](NC(=O)[C@H](Cc1ccc(O)cc1)NC(=O)[C@H](Cc1ccccc1)NC(=O)[C@H](Cc1c[nH]cn1)NC(=O)[C@@H](N)CC(C)C)[C@@H](C)O)[C@@H](C)O)C(=O)O [Peptide 1, Leu-His-Phe-Tyr-Thr-Glu-Leu-Ser-Ser-Thr-Arg-Gly-Tyr-Ser-Ile] (H-LHFYTELSSTRGYSI-OH) |  |  |  | > 200 | > 200
7 |  |  | CC[C@H](C)[C@H](N)C(=O)N[C@@H](Cc1ccccc1)C(=O)N[C@@H](Cc1c[nH]c2ccccc12)C(=O)N[C@@H](CO)C(=O)N[C@@H](CCCCN)C(=O)N[C@@H](CC(=O)O)C(=O)N[C@H](C(=O)NCC(=O)N[C@@H](Cc1ccc(O)cc1)C(=O)N[C@@H](CO)C(=O)N[C@@H](Cc1ccccc1)C(=O)N[C@H](C(=O)O)[C@@H](C)O)[C@@H](C)CC [Peptide 12, Ile-Phe-Trp-Ser-Lys-Asp-Ile-Gly-Tyr-Ser-Phe-Thr] (H-IFWSKDIGYSFT-OH) | totally abolished the inhibitory activity | > 200 | > 200 |  | 
8 |  |  | CC[C@H](C)[C@H](NC(=O)[C@H](CO)NC(=O)[C@H](Cc1ccc(O)cc1)NC(=O)CNC(=O)[C@H](CCCNC(=N)N)NC(=O)[C@@H](NC(=O)[C@H](CO)NC(=O)[C@H](CO)NC(=O)[C@H](CC(C)C)NC(=O)[C@@H](N)CCC(=O)O)[C@@H](C)O)C(=O)N[C@@H](Cc1ccccc1)C(=O)N[C@@H](CO)C(=O)N[C@@H](Cc1ccc(O)cc1)C(=O)N[C@@H](C)C(=O)N[C@H](C(=O)O)[C@@H](C)O [Peptide 2, Glu-Leu-Ser-Ser-Thr-Arg-Gly-Tyr-Ser-Ile-Phe-Ser-Tyr-Ala-Thr] (H-ELSSTRGYSIFSYAT-OH) |  |  |  | > 200 | > 200
9 |  |  | CC[C@H](C)[C@H](NC(=O)[C@H](CCC(=O)O)NC(=O)[C@H](CO)NC(=O)CNC(=O)CNC(=O)[C@@H](NC(=O)[C@@H](NC(=O)[C@H](Cc1ccccc1)NC(=O)[C@H](CO)NC(=O)[C@H](Cc1ccc(O)cc1)NC(=O)CN)[C@@H](C)O)C(C)C)C(=O)N[C@@H](CC(C)C)C(=O)N[C@@H](Cc1ccccc1)C(=O)N[C@@H](CCC(=O)O)C(=O)N[C@H](C(=O)O)C(C)C [Peptide 8, Gly-Tyr-Ser-Phe-Thr-Val-Gly-Gly-Ser-Glu-Ile-Leu-Phe-Glu-Val] (H-GYSFTVGGSEILFEV-OH) |  |  |  | > 200 | > 200
10 |  |  | CC[C@H](C)[C@H](NC(=O)[C@H](C)NC(=O)[C@H](CCCCN)NC(=O)[C@H](CO)NC(=O)[C@H](Cc1c[nH]c2ccccc12)NC(=O)[C@H](Cc1ccccc1)NC(=O)[C@@H](NC(=O)[C@H](CC(C)C)NC(=O)[C@@H](NC(=O)[C@@H](N)CCC(=O)O)[C@@H](C)CC)[C@@H](C)CC)C(=O)NCC(=O)N[C@@H](Cc1ccc(O)cc1)C(=O)N[C@@H](CO)C(=O)N[C@@H](Cc1ccccc1)C(=O)N[C@H](C(=O)O)[C@@H](C)O [Peptide 22, Glu-Ile-Leu-Ile-Phe-Trp-Ser-Lys-Ala-Ile-Gly-Tyr-Ser-Phe-Thr] (H-EILIFWSKAIGYSFT-OH; N-terminus and C-terminus assumed) | large decrease in inhibition capacity | 3 ± 0.6 | 5.5 ± 1.5 |  | 
